Test results from PubChem BioAssay AID1918991 (Molecular Pharmacology Branch, DTP, NCI, 2023).
pIC50: −log10 of the molar value.

Tested on: 186277-243-T-J2-PDC complex spheroid growth
Test: Anticancer human tumor 186277-243-T-J2-PDC patient-derived colon adenocarcinoma cell line growth inhibition [AhR]
Conditions: for pIC50: curve of first compound; for viability, T/C: stronger effect = lower value; active means viability on the fitted dose curve at most 10% of control; inactive means the rest
Description: Multicellular complex tumor spheroid response to aryl hydrocarbon receptor antagonists in combination with a variety of drugs and investigational agents in selected tumor cell lines
The current study was undertaken to assess response to aryl hydrocarbon receptor antagonists in combination with standard-of-care drugs and investigational agents in solid tumor complex spheroid models. Complex spheroids include a stromal component modeled by human endothelial cells (HUVEC) and fibroblasts modeled by human mesenchymal stem cells (MSCs). The concentration ranges selected for each drug and investigational agent were based upon clinically achievable concentrations if the clinical Cmax of the agent was known.
Compounds. The drugs and investigational agents: BAY 2416964 (NSC825713), GNF351 (NSC835774), CH-223191 (NSC835775), CPI-455 (NSC825282), aza-TdCyd (NSC777586), decitabine (NSC127716), belinostat (NSC758774), entinostat (NSC756642), pevonedistat (NSC761192), tazemetostat (NSC777109), talazoparib (NSC765396), olaparib (NSC753686), selinexor (NSC780203), nedisertib (M3814, NSC802822), bortezomib (NSC756655), venetoclax (NSC766270), doxorubicin (NSC123127), elimusertib (BAY189344, NSC800525), ceralasertib (AZD6738, NSC777638), TAK-243 (NSC785004), alisertib (NSC759677), etoposide (NSC141540), topotecan (NSC609699), eribulin (NSC707389), gemcitabine (NSC613327), carboplatin (NSC241240), cisplatin (NSC119875), and SN-38 (NSC673596) were obtained from the National Cancer Institute (NCI) Developmental Therapeutics Program Chemical Repository (32). The FDA-approved anticancer drug set is available from the Developmental Therapeutics Program at https://dtp.cancer.gov/organization/dscb/obtaining/available plates.htm. […] The stock solutions were prepared in dimethyl sulfoxide (DMSO, Sigma-Aldrich, St. Louis, MO, cat. D2650), except for the platinum compounds which were prepared in saline (Quality Biological, Gaithersburg, MD, cat. 114-055-101), at 800-fold the tested concentration and stored at -70 degrees C prior to their use. All drugs and investigational agents were tested over a range starting from a high concentration at or near the clinical Cmax and decreasing in half-log increments. If the clinical Cmax for an agent had not been determined, the highest concentration tested was 10 microM (Table 1).
Cell Culture. All cells were maintained in an incubator at 37 degrees C and 5% CO2 with 95% humidity. The PDC lines were cultured according to standard operating procedures established by the NCI PDMR (https://pdmr.cancer.gov). Briefly, all PDCs were thawed and cultured in Matrigel-coated flasks prepared with a working solution of 1X Ham's F-12 nutrient mix, without supplementation (Invitrogen, Waltham, MA, cat. 11765054), 100 U/mL penicillin-streptomycin (Invitrogen, cat. 15140122), and 2.5% Matrigel (Corning Inc., Corning, NY, cat. 354248) for the first three passages. All PDCs were cultured in complete DMEM/F-12 media containing advanced DMEM/F-12 (Invitrogen, cat. 12634028), 4.9% defined fetal bovine serum, heat inactivated (HyClone Laboratories Inc., Logan, UT, cat. SH30070.03HI), 389 ng/mL hydrocortisone (Sigma-Aldrich, cat. H4001), 9.7 ng/mL human EGF recombinant protein (Invitrogen, cat. PHG0313), 23.4 microg/mL adenine (Sigma-Aldrich, cat. A2786), 97.3 U/mL penicillin-streptomycin (Invitrogen, cat. 15140122), 1.9 mM L-glutamine (Invitrogen, cat. 25030081), and 9.7 microM Y-27632 dihydrochloride (Tocris Bioscience, Bristol, United Kingdom, cat. 1254). The PDCs were cultured in complete DMEM/F12 media without 10 microM Y-27632 dihydrochloride for at least two passages prior to the screen. The established cell lines NCI-H1341 and […] were cultured in DMEM/F-12, HEPES (Invitrogen, cat. 11330032), 5% defined fetal bovine serum (HyClone Laboratories Inc., cat. SH30070.03), ITS premix universal culture supplement [insulin (5 microg/mL), transferrin (5 microg/mL), and selenious acid (5 ng/mL)] […]

[1] = second compound 0.1 µM, first compound 0.0316 µM
[2] = second compound 0.1 µM, first compound 0.1 µM
[3] = second compound 0.1 µM, first compound 0.316 µM
[4] = second compound 0.1 µM, first compound 1 µM
[5] = second compound 0.1 µM, first compound 3.16 µM
[6] = second compound 0.1 µM, first compound 10 µM
[7] = second compound 0.316 µM, first compound 0.0316 µM
[8] = second compound 0.316 µM, first compound 0.1 µM
[9] = second compound 0.316 µM, first compound 0.316 µM
[10] = second compound 0.316 µM, first compound 1 µM
[11] = second compound 0.316 µM, first compound 3.16 µM
[12] = second compound 0.316 µM, first compound 10 µM
[13] = second compound 1 µM, first compound 0.0316 µM
[14] = second compound 1 µM, first compound 0.1 µM
[15] = second compound 1 µM, first compound 0.316 µM
[16] = second compound 1 µM, first compound 1 µM
[17] = second compound 1 µM, first compound 3.16 µM
[18] = second compound 1 µM, first compound 10 µM
[19] = second compound 3.16 µM, first compound 0.0316 µM
[20] = second compound 3.16 µM, first compound 0.1 µM
[21] = second compound 3.16 µM, first compound 0.316 µM
[22] = second compound 3.16 µM, first compound 1 µM
[23] = second compound 3.16 µM, first compound 3.16 µM
[24] = second compound 3.16 µM, first compound 10 µM
[25] = second compound 10 µM, first compound 0.0316 µM
[26] = second compound 10 µM, first compound 0.1 µM
[27] = second compound 10 µM, first compound 0.316 µM
[28] = second compound 10 µM, first compound 1 µM
[29] = second compound 10 µM, first compound 3.16 µM
[30] = second compound 10 µM, first compound 10 µM
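Further: spheroids exposed to compounds for seven days before the viability read.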
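Wherever viability, T/C is given: luminescent signal used as a stand-in for viable cell amount; 100% = DMSO vehicle control wells.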

CC1(C)CCC(CN2CCN(c3ccc(C(=O)NS(=O)(=O)c4ccc(NCC5CCOCC5)c([N+](=O)[O-])c4)c(Oc4cnc5[nH]ccc5c4)c3)CC2)=C(c2ccc(Cl)cc2)C1 + CC(CO)NC(=O)c1cc(-c2ccc(Cl)cc2)nn(-c2cnn(C)c2)c1=O
active: viability, T/C [30] 9.34%
5.25: pIC50 (second compound 3.16 µM)
5.32: pIC50 (second compound 10 µM)
inactive: viability, T/C [1] 99.3% | viability, T/C [2] 113% | viability, T/C [3] 102% | viability, T/C [4] 101% | viability, T/C [5] 84.8% | viability, T/C [6] 10.5% | viability, T/C [7] 108% | viability, T/C [8] 94.8% | viability, T/C [9] 96.7% | viability, T/C [10] 94.2% | viability, T/C [11] 96.2% | viability, T/C [12] 11.8% | viability, T/C [13] 112% | viability, T/C [14] 98.4% | viability, T/C [15] 109% | viability, T/C [16] 95.8% | viability, T/C [17] 92.1% | viability, T/C [18] 10.1% | viability, T/C [19] 95.2% | viability, T/C [20] 85.8% | viability, T/C [21] 83.1% | viability, T/C [22] 94.2% | viability, T/C [23] 88.1% | viability, T/C [24] 10.2% | viability, T/C [25] 77.5% | viability, T/C [26] 96.7% | viability, T/C [27] 83.9% | viability, T/C [28] 78.7% | viability, T/C [29] 74.4%
5.24: pIC50 (second compound 1 µM)
5.23: pIC50 (second compound 0.316 µM)
5.27: pIC50 (second compound 0.1 µM)

COc1cc(Nc2ncc3c(n2)-c2ccc(Cl)cc2C(c2c(F)cccc2OC)=NC3)ccc1C(=O)O + CC(CO)NC(=O)c1cc(-c2ccc(Cl)cc2)nn(-c2cnn(C)c2)c1=O
> 7.50: pIC50 (second compound 0.1 µM) | pIC50 (second compound 0.316 µM) | pIC50 (second compound 1 µM) | pIC50 (second compound 3.16 µM) | pIC50 (second compound 10 µM)
inactive: viability, T/C [1] 27.6% | viability, T/C [2] 22.9% | viability, T/C [3] 21.5% | viability, T/C [4] 20.5% | viability, T/C [5] 22.3% | viability, T/C [6] 27.9% | viability, T/C [7] 26.1% | viability, T/C [8] 23.8% | viability, T/C [9] 22.4% | viability, T/C [10] 18.9% | viability, T/C [11] 22.7% | viability, T/C [12] 22.7% | viability, T/C [13] 30.3% | viability, T/C [14] 22% | viability, T/C [15] 21.9% | viability, T/C [16] 20.7% | viability, T/C [17] 22.2% | viability, T/C [18] 25% | viability, T/C [19] 26.1% | viability, T/C [20] 24.2% | viability, T/C [21] 20.7% | viability, T/C [22] 19.3% | viability, T/C [23] 23% | viability, T/C [24] 26% | viability, T/C [25] 23.6% | viability, T/C [26] 22.3% | viability, T/C [27] 21.5% | viability, T/C [28] 21.2% | viability, T/C [29] 23.4% | viability, T/C [30] 26.1%

Cn1ncnc1C1c2n[nH]c(=O)c3cc(F)cc(c23)NC1c1ccc(F)cc1 (stereo not given) + CC(CO)NC(=O)c1cc(-c2ccc(Cl)cc2)nn(-c2cnn(C)c2)c1=O
< 7.00: pIC50 (second compound 0.1 µM) | pIC50 (second compound 0.316 µM) | pIC50 (second compound 1 µM) | pIC50 (second compound 3.16 µM) | pIC50 (second compound 10 µM)
inactive: viability, T/C (second compound 0.1 µM, first compound 0.000316 µM) 103% | viability, T/C (second compound 0.1 µM, first compound 0.001 µM) 99.3% | viability, T/C (second compound 0.1 µM, first compound 0.00316 µM) 102% | viability, T/C (second compound 0.1 µM, first compound 0.01 µM) 93.5% | viability, T/C [1] 89.4% | viability, T/C [2] 63.8% | viability, T/C (second compound 0.316 µM, first compound 0.000316 µM) 111% | viability, T/C (second compound 0.316 µM, first compound 0.001 µM) 106% | viability, T/C (second compound 0.316 µM, first compound 0.00316 µM) 93.1% | viability, T/C (second compound 0.316 µM, first compound 0.01 µM) 96.9% | viability, T/C [7] 83% | viability, T/C [8] 64.5% | viability, T/C (second compound 1 µM, first compound 0.000316 µM) 102% | viability, T/C (second compound 1 µM, first compound 0.001 µM) 108% | viability, T/C (second compound 1 µM, first compound 0.00316 µM) 118% | viability, T/C (second compound 1 µM, first compound 0.01 µM) 94.6% | viability, T/C [13] 79.4% | viability, T/C [14] 69.3% | viability, T/C (second compound 3.16 µM, first compound 0.000316 µM) 92.7% | viability, T/C (second compound 3.16 µM, first compound 0.001 µM) 109% | viability, T/C (second compound 3.16 µM, first compound 0.00316 µM) 94.7% | viability, T/C (second compound 3.16 µM, first compound 0.01 µM) 86.4% | viability, T/C [19] 76.5% | viability, T/C [20] 67.7% | viability, T/C (second compound 10 µM, first compound 0.000316 µM) 87% | viability, T/C (second compound 10 µM, first compound 0.001 µM) 98.1% | viability, T/C (second compound 10 µM, first compound 0.00316 µM) 84.5% | viability, T/C (second compound 10 µM, first compound 0.01 µM) 72.3% | viability, T/C [25] 61.9% | viability, T/C [26] 56%

NS(=O)(=O)OCC1CC(n2ccc3c(NC4CCc5ccccc54)ncnc32)CC1O (stereo not given) + CC(CO)NC(=O)c1cc(-c2ccc(Cl)cc2)nn(-c2cnn(C)c2)c1=O
6.69: pIC50 (second compound 0.1 µM)
6.96: pIC50 (second compound 10 µM)
inactive: viability, T/C [1] 102% | viability, T/C [2] 76.7% | viability, T/C [3] 33.5% | viability, T/C [4] 11% | viability, T/C [7] 91.8% | viability, T/C [8] 76.7% | viability, T/C [9] 29.4% | viability, T/C [13] 89.9% | viability, T/C [14] 65.1% | viability, T/C [15] 22.1% | viability, T/C [19] 78.3% | viability, T/C [20] 61.1% | viability, T/C [21] 22.9% | viability, T/C [25] 63.5% | viability, T/C [26] 53.2% | viability, T/C [27] 22%
6.71: pIC50 (second compound 0.316 µM)
active: viability, T/C [5] 4.62% | viability, T/C [6] 1.34% | viability, T/C [10] 10.7% | viability, T/C [11] 3.18% | viability, T/C [12] 0.98% | viability, T/C [16] 8.96% | viability, T/C [17] 3.1% | viability, T/C [18] 1.27% | viability, T/C [22] 7.89% | viability, T/C [23] 2.24% | viability, T/C [24] 1.06% | viability, T/C [28] 8.3% | viability, T/C [29] 2.58% | viability, T/C [30] 1.14%
6.86: pIC50 (second compound 3.16 µM)
6.82: pIC50 (second compound 1 µM)
